Reference: patent US8399515B2, “Five and fifteen carbon fatty acids for treating metabolic disorders and as nutritional supplements” (Baylor Research Institute, priority 2003, dated 2013)
“And” between values parts separate entries of the source, which are not always exact repeats. Equal entries are not always repeated.

How the values were obtained:
[1] = system: control / normal fibroblasts; test: Fate of odd-carbon fatty acids in control (normal) fibroblasts; assay type: cell-based, human; set-up: *C3 acylcarnitine / *C5 acylcarnitine / *C7 acylcarnitine / *C9 acylcarnitine / *C11 acylcarnitine / *C13 acylcarnitine / *C15 acylcarnitine: unit not given here; conditions: for Propionylcarnitine from odd carbon precursor: NORMAL fibroblasts
Method: Fibroblasts obtained from patients with inherited defects of mitochondrial fat oxidation were cultured in the presence of omega deuterated odd-carbon numbered fatty acids, as described in Roe, C. R., Sweetman, L., Roe, D. S., David, F., Brunengraber, H., “Effective Dietary Treatment of Cardiomyopathy & Rhabdomyolysis in Long-Chain Fat Oxidation Disorders using an Anaplerotic Odd-Chain Triglyceride,” J. Clin. Invest. 110 (2): 259-269 (2002). […]

[2] = system: fibroblasts from patients with L-3-hydroxy-acyl-CoA dehydrogenase (LCHAD) deficiency; test: Propionylcarnitine from oxidation of odd-carbon fatty acids in LCHAD fibroblasts; assay type: cell-based, human; conditions: LCHAD fibroblasts, one line per patient, 72 hours incubation
Method: (§1) Fibroblasts obtained from patients with inherited defects of mitochondrial fat oxidation were cultured in the presence of omega deuterated odd-carbon numbered fatty acids, as described in Roe, C. R., Sweetman, L., Roe, D. S., David, F., Brunengraber, H., “Effective Dietary Treatment of Cardiomyopathy & Rhabdomyolysis in Long-Chain Fat Oxidation Disorders using an Anaplerotic Odd-Chain Triglyceride,” J. Clin. Invest. 110 (2): 259-269 (2002).
(§2) The data in Table 1 represents testing of cultured fibroblasts derived from ten patients afflicted with Very-long-chain acyl-CoA dehydrogenase (VLCAD) deficiency (six patients with the severe cardiac form and four with the non-cardiac milder phenotype), two patients with Mitochondrial Trifunctional Protein (MTP) deficiency, five patients having L-3-hydroxy-acyl-CoA dehydrogenase (LCHAD) deficiency and three patients with Short-chain acyl-CoA dehydrogenase (SCAD) deficiency.

SCAD patient = test: Meal test with triheptanoin or tripentanoin in a SCAD patient; assay type: in vivo, human
Description: (§3) A VLCAD patient and an SCAD patient, both of whom had gastrostomy sites for enteral administration, each were provided with separate meals containing equimolar amounts of triheptanoin (C7) and tripentanoin (C5) at different times on the same day. Each patient was given the amount in 1 of 4 daily meals equivalent to a diet of 3 gms/Kg/day or about 30% of total Kcal as the triglyceride. Serial blood samples were obtained hourly and individual urines were collected at baseline and during the meal.
(§4) The patient with VLCAD (FIG. 3) was monitored over a 3 hour interval and the SCAD patient was monitored for 4 hours after beginning the meal. […] One way the VLCAD patient was monitored was for myristenoylcamitine (cis-5-C14:1), which reflects oxidation of oleate and is therefore an indication of ongoing lipolysis during the meal tests (it is not derived from either C7 or C5). […] These changes are not observed with even-carbon triglycerides.
The second patient with SCAD deficiency (FIG. 4) had been receiving the triheptanoin diet for more than 2 years. This disorder is due to an inherited deficiency of butyryl-CoA dehydrogenase (SCAD) and is known to oxidize even carbon fatty acids of 4-6 carbon chain length.
In FIG. 4, C7-C3 represents the blood levels of C3 derived from C7; and C5-C3 represents the blood levels of C3 derived from C5, C7-C5 represents blood levels of pentanoylcarnitine (C5) derived from C7 meals and C5-C5 represents blood levels of pentanoylcarnitine (C5) derived from C5 meals. […] C7-C4 and C5-C4 represent the levels of the disease-specific acylcarnitine (butyrylcarnitine [C4]) observed in SCAD deficiency. […] This increased quantity of C3 corresponds to those observed for SCAD deficiency in the fibroblast studies above shown in Table 1.

[3] = system: fibroblasts from patients with Very-long-chain acyl-CoA dehydrogenase (VLCAD) deficiency, severe cardiac form; test: Propionylcarnitine from oxidation of odd-carbon fatty acids in VLCAD (cardiac) fibroblasts; assay type: cell-based, human; conditions: VLCAD cardiac fibroblasts, one line per patient, 72 hours incubation
Method: as §1, §2

[4] = system: fibroblasts from patients with Mitochondrial Trifunctional Protein (MTP) deficiency; test: Propionylcarnitine from oxidation of odd-carbon fatty acids in MTP fibroblasts; assay type: cell-based, human; conditions: MTP fibroblasts, one line per patient, 72 hours incubation
Method: as §1, §2

[5] = system: fibroblasts from patients with VLCAD deficiency, non-cardiac milder phenotype; test: Propionylcarnitine from oxidation of odd-carbon fatty acids in VLCAD (non-cardiac) fibroblasts; assay type: cell-based, human; conditions: VLCAD non-cardiac fibroblasts, one line per patient, 72 hours incubation
Method: as §1, §2

[6] = system: fibroblasts from MCAD heterozygote (carrier); test: Fate of odd-carbon fatty acids in MCAD carrier fibroblasts; assay type: cell-based, human; set-up: unit not given here
Method: as §1
Fibroblasts from four patients with MCAD deficiency and one heterozygote (carrier) indicate that odd-carbon fatty acids containing more than seven carbons can not be effectively used in that disease. […] That any C3 was produced is presumably due to overlapping

[7] = system: MCAD-deficient fibroblasts; test: Fate of odd-carbon fatty acids in MCAD-deficient fibroblasts; assay type: cell-based, human; set-up: *C3 acylcarnitine / *C5 acylcarnitine / *C7 acylcarnitine / *C9 acylcarnitine / *C11 acylcarnitine / *C13 acylcarnitine / *C15 acylcarnitine: unit not given here; conditions: for *C3 acylcarnitine / *C5 acylcarnitine / *C7 acylcarnitine / *C9 acylcarnitine: MCAD fibroblasts, N 4
Method: as §1
Fibroblasts from four patients with MCAD deficiency and one heterozygote (carrier) indicate that odd-carbon fatty acids containing more than seven carbons can not be effectively used in that disease. […]

VLCAD patient = test: Meal test with triheptanoin or tripentanoin in a VLCAD patient; assay type: in vivo, human; set-up: Myristenoylcarnitine Level: unit not given here; conditions: for Myristenoylcarnitine Level / Propionylcarnitine Level: blood
Description: as §3, §4

[8] = system: fibroblasts from patients with Short-chain acyl-CoA dehydrogenase (SCAD) deficiency; test: Propionylcarnitine from oxidation of odd-carbon fatty acids in SCAD fibroblasts; assay type: cell-based, human; conditions: SCAD fibroblasts, one line per patient, 72 hours incubation
Method: as §1, §2

## CCCCCCC(=O)O [C7, heptanoate, reference compound]
[1]; CONTROL MEAN, N = 4
  *C3 acylcarnitine: 24.3
  *C5 acylcarnitine: 1.3
  *C7 acylcarnitine: 0.4
[1]
  Propionylcarnitine from odd carbon precursor: 24.3 nmol/mg Protein/72 hours
[2]
  Propionylcarnitine from oxidation of fatty acid: 53.2 nmol/mg Protein/72 hours and 23.5 nmol/mg Protein/72 hours and 24.0 nmol/mg Protein/72 hours and 10.6 nmol/mg Protein/72 hours and 22.7 nmol/mg Protein/72 hours
SCAD patient; meal test, 4 hours
  Clinical or biochemical toxicity: no clinical or biochemical toxicity
SCAD patient; time 0 hours
  Relative Blood Levels of Fatty Acid Chain Lengths: C3: 3.00
  Relative Blood Levels of Fatty Acid Chain Lengths: C4 (butyrylcarnitine): 0.34
SCAD patient; time 1 hours
  Relative Blood Levels of Fatty Acid Chain Lengths: C3: 2.08
  Relative Blood Levels of Fatty Acid Chain Lengths: C4 (butyrylcarnitine): 0.16
SCAD patient; time 2 hours
  Relative Blood Levels of Fatty Acid Chain Lengths: C3: 2.42
  Relative Blood Levels of Fatty Acid Chain Lengths: C4 (butyrylcarnitine): 0.23
SCAD patient; time 3 hours
  Relative Blood Levels of Fatty Acid Chain Lengths: C3: 3.29
  Relative Blood Levels of Fatty Acid Chain Lengths: C4 (butyrylcarnitine): 0.26
SCAD patient; time 4 hours
  Relative Blood Levels of Fatty Acid Chain Lengths: C3: 2.61
  Relative Blood Levels of Fatty Acid Chain Lengths: C4 (butyrylcarnitine): 0.30
[3]
  Propionylcarnitine from oxidation of fatty acid: 28.7 nmol/mg Protein/72 hours and 13.0 nmol/mg Protein/72 hours and 44.5 nmol/mg Protein/72 hours and 17.8 nmol/mg Protein/72 hours and 20.4 nmol/mg Protein/72 hours and 25.0 nmol/mg Protein/72 hours
[4]
  Propionylcarnitine from oxidation of fatty acid: 24.1 nmol/mg Protein/72 hours and 48.1 nmol/mg Protein/72 hours
[5]
  Propionylcarnitine from oxidation of fatty acid: 22.6 nmol/mg Protein/72 hours and 20.3 nmol/mg Protein/72 hours and 24.3 nmol/mg Protein/72 hours and 14.4 nmol/mg Protein/72 hours
[6]
  *C3 acylcarnitine: 16.3
  *C5 acylcarnitine: 0.9
  *C7 acylcarnitine: 0.5
[7]; Maximum
  *C3 acylcarnitine: 15.4
  *C5 acylcarnitine: 1.8
  *C7 acylcarnitine: 12.0
[7]; Mean
  *C3 acylcarnitine: 8.3
  *C5 acylcarnitine: 1.1
  *C7 acylcarnitine: 8.3
[7]; Minimum
  *C3 acylcarnitine: 5.7
  *C5 acylcarnitine: 0.7
  *C7 acylcarnitine: 2.4
[7]; MCAD-1 fibroblast cell line
  Propionylcarnitine from odd carbon precursor: 10.6 nmol/mg Protein/72 hours
[7]; MCAD-2 fibroblast cell line
  Propionylcarnitine from odd carbon precursor: 17.4 nmol/mg Protein/72 hours
VLCAD patient; time 0 hours, cis-5-C14:1, marker of lipolysis
  Myristenoylcarnitine Level: 2.61
VLCAD patient; time 0 hours, enteral meal via gastrostomy
  Propionylcarnitine Level: 1.39
VLCAD patient; time 1 hours
  Myristenoylcarnitine Level: 2.83
  Propionylcarnitine Level: 2.89
VLCAD patient; time 2 hours
  Myristenoylcarnitine Level: 1.38
  Propionylcarnitine Level: 3.78
VLCAD patient; time 3 hours
  Myristenoylcarnitine Level: 2.64
  Propionylcarnitine Level: 4.57
VLCAD patient; meal test, 3 hour interval
  Clinical or biochemical toxicity: no clinical or biochemical toxicity
[8]
  Propionylcarnitine from oxidation of fatty acid: 57.7 nmol/mg Protein/72 hours and 32.4 nmol/mg Protein/72 hours and 39.2 nmol/mg Protein/72 hours

## CCCCCCCCC(=O)O [C9, nonanoate, reference compound]
[1]; CONTROL MEAN, N = 4
  *C3 acylcarnitine: 3.9
  *C5 acylcarnitine: 0.4
  *C7 acylcarnitine: 0.3
  *C9 acylcarnitine: 2.0
[1]
  Propionylcarnitine from odd carbon precursor: 3.9 nmol/mg Protein/72 hours
[6]
  *C3 acylcarnitine: 6.0
  *C5 acylcarnitine: 0.4
  *C7 acylcarnitine: 0.4
  *C9 acylcarnitine: 3.2
[7]; Maximum
  *C3 acylcarnitine: 5.5
  *C5 acylcarnitine: 0.7
  *C7 acylcarnitine: 4.2
  *C9 acylcarnitine: 10.3
[7]; Mean
  *C3 acylcarnitine: 3.0
  *C5 acylcarnitine: 0.5
  *C7 acylcarnitine: 2.8
  *C9 acylcarnitine: 7.3
[7]; Minimum
  *C3 acylcarnitine: 1.6
  *C5 acylcarnitine: 0.3
  *C7 acylcarnitine: 1.6
  *C9 acylcarnitine: 4.0
[7]; MCAD-1 fibroblast cell line
  Propionylcarnitine from odd carbon precursor: 1.8 nmol/mg Protein/72 hours
[7]; MCAD-2 fibroblast cell line
  Propionylcarnitine from odd carbon precursor: 2.9 nmol/mg Protein/72 hours
